# Key:
# Hepatitis C virus [1] = assay: Antiviral activity against Hepatitis C virus subtype 1b infected in Huh-7 cells transfected with HCV subgenomic replicon for NS5B polymerase assessed as inhibition of viral replication measured upto 96 hrs by luciferase reporter gene assay; assay type: functional, organism-based, Hepacivirus hominis; settings: for IC50: Huh-7, 96 h; for IC90: Huh-7, time <= 96 hrs
# Hepatitis C virus [2] = assay: Antiviral activity against Hepatitis C virus subtype 1b infected in Huh-7 cells transfected with HCV subgenomic replicon for NS5B polymerase assessed as inhibition of viral replication measured upto 96 hrs in presence of 40% of human serum by luciferase reporter gene assay; assay type: functional, organism-based, Hepacivirus hominis; settings: Huh-7, 96 h
# [3] = Cytotoxicity against human Huh-7 cells transfected with HCV subgenomic replicon for NS5B polymerase assessed as reduction in cell viability; assay type: toxicity, cell-based
# [4] = Protein binding in rat plasma at 1 uM incubated for 6 hrs by LC-MS/MS based rapid equilibrium dialysis method; assay type: ADME, cell-free; settings: read-out: PPB (converted)
# [5] = AUC (0 to infinity) in Sprague-Dawley rat at 1 mg/kg,iv and measured after 72 hrs by LC/MS/MS analysis; assay type: ADME, organism-based; set-up: time 72 hrs, dose 1 mg/kg, route iv; settings: in vivo; for AUC(0-inf): Sprague-Dawley
# [6] = Unbound AUC (0 to infinity) in Sprague-Dawley rat at 1 mg/kg,iv and measured after 72 hrs by LC/MS/MS analysis; assay type: ADME, organism-based; settings: in vivo
# [7] = Unbound clearance in Sprague-Dawley rat at 1 mg/kg,iv and measured after 72 hrs by LC/MS/MS analysis; assay type: ADME, organism-based; settings: in vivo
# [8] = Half life in Sprague-Dawley rat at 1 mg/kg,iv and measured after 72 hrs by LC/MS/MS analysis; assay type: ADME, organism-based; settings: in vivo
# [9] = Volume of distribution at steady state in Sprague-Dawley rat at 1 mg/kg,iv and measured after 72 hrs by LC/MS/MS analysis; assay type: ADME, organism-based; settings: in vivo, read-out: Vdss
# [10] = AUC (0 to infinity) in Sprague-Dawley rat at 3 mg/kg,po and measured after 72 hrs by LC/MS/MS analysis; assay type: ADME, organism-based; set-up: time 72 hrs, dose 3 mg/kg, route po; settings: in vivo
# [11] = Unbound AUC (0 to infinity) in Sprague-Dawley rat at 3 mg/kg,po and measured after 72 hrs by LC/MS/MS analysis; assay type: ADME, organism-based; settings: in vivo
# [12] = Cmax in Sprague-Dawley rat at 3 mg/kg,po and measured after 72 hrs by LC/MS/MS analysis; assay type: ADME, organism-based; set-up: time 72 hrs, dose 3 mg/kg, route po; settings: in vivo
# [13] = Oral bioavailability in Sprague-Dawley rat at 3 mg/kg and measured after 72 hrs by LC/MS/MS analysis; assay type: ADME, organism-based; settings: in vivo
# [14] = Clearance in Sprague-Dawley rat at 1 mg/kg,iv and measured after 72 hrs by LC/MS/MS analysis; assay type: ADME, organism-based; settings: in vivo
# [15] = Half life in Sprague-Dawley rat at 3 mg/kg,po and measured after 72 hrs by LC/MS/MS analysis; assay type: ADME, organism-based; settings: in vivo
# [16] = molecular target: T1, Nuclear receptor subfamily 1 group I member 2 (Homo sapiens, UniProt O75469); assay: Activation of human PXR expressed in human DPX2 co-expressing luciferase reporter gene incubated for 24 hrs by luciferase assay; assay type: cell-based
# T1 sequence (O75469 whole entry): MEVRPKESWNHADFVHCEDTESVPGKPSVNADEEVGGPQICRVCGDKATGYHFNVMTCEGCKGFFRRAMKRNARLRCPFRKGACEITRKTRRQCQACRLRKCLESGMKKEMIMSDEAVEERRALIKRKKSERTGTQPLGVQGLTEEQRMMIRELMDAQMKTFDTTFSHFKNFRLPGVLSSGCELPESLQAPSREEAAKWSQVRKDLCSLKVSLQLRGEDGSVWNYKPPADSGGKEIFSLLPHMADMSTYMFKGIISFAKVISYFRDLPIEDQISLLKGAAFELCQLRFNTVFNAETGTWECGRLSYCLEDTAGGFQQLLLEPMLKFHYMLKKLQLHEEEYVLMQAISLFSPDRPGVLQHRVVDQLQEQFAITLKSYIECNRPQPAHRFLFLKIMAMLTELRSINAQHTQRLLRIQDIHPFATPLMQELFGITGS
# PXR [17] = molecular target: T2, PXR (Homo sapiens, UniProt O75469); assay: Activation of human PXR expressed in human DPX2 co-expressing luciferase reporter gene assessed as maximum efficacy incubated for 24 hrs by luciferase assay relative to control; assay type: cell-based; settings: DPX2 cells expressing human PXR and luciferase reporter gene
# T2 sequence (O75469 whole entry): T1 sequence (O75469 whole entry)
# [18] = AUC (0 to infinity) in Sprague-Dawley rat at 0.5 mg/kg,iv and measured after 72 hrs by LC/MS/MS analysis; assay type: ADME, organism-based; set-up: time 72 hrs, dose 0.5 mg/kg, route iv; settings: in vivo
# [19] = Unbound AUC (0 to infinity) in Sprague-Dawley rat at 0.5 mg/kg,iv and measured after 72 hrs by LC/MS/MS analysis; assay type: ADME, organism-based; settings: in vivo
# [20] = Unbound clearance in Sprague-Dawley rat at 0.5 mg/kg,iv and measured after 72 hrs by LC/MS/MS analysis; assay type: ADME, organism-based; settings: in vivo
# [21] = Half life in Sprague-Dawley rat at 0.5 mg/kg,iv and measured after 72 hrs by LC/MS/MS analysis; assay type: ADME, organism-based; settings: in vivo
# [22] = Volume of distribution at steady state in Sprague-Dawley rat at 0.5 mg/kg,iv and measured after 72 hrs by LC/MS/MS analysis; assay type: ADME, organism-based; settings: in vivo, read-out: Vdss
# [23] = AUC (0 to infinity) in Sprague-Dawley rat at 1.5 mg/kg,po and measured after 72 hrs by LC/MS/MS analysis; assay type: ADME, organism-based; set-up: dose 1.5 mg/kg, time 72 hrs, route po; settings: in vivo
# [24] = Unbound AUC (0 to infinity) in Sprague-Dawley rat at 1.5 mg/kg,po and measured after 72 hrs by LC/MS/MS analysis; assay type: ADME, organism-based; settings: in vivo
# [25] = Cmax in Sprague-Dawley rat at 1.5 mg/kg,po and measured after 72 hrs by LC/MS/MS analysis; assay type: ADME, organism-based; set-up: dose 1.5 mg/kg, time 72 hrs, route po; settings: in vivo
# [26] = Oral bioavailability in Sprague-Dawley rat at 1.5 mg/kg and measured after 72 hrs by LC/MS/MS analysis; assay type: ADME, organism-based; settings: in vivo
# [27] = Half life in Sprague-Dawley rat at 1.5 mg/kg,po and measured after 72 hrs by LC/MS/MS analysis; assay type: ADME, organism-based; settings: in vivo
# [28] = Protein binding in human plasma at 1 uM incubated for 6 hrs by LC-MS/MS based rapid equilibrium dialysis method; assay type: ADME, cell-free; settings: read-out: PPB
# [29] = Microsomal stability in rat liver microsomes assessed as parent compound remaining at 1 uM and measured after 30 mins in presence of NADPH by LC/MS/MS analysis; assay type: ADME, Microsome; settings: 0.5 h
# [30] = Microsomal stability in human liver microsomes assessed as parent compound remaining at 1 uM and measured after 30 mins in presence of NADPH by LC/MS/MS analysis; assay type: ADME, Microsome; settings: 0.5 h
# Cytochrome P450 3A4 = Cytochrome P450 3A4 (Homo sapiens, UniProt P08684); assay: Inhibition of CYP3A4 in human liver microsomes incubated for 10 mins in presence of NADPH by LC/MS/MS analysis; assay type: ADME, Microsome
# Cytochrome P450 3A4, sequence (P08684 whole entry): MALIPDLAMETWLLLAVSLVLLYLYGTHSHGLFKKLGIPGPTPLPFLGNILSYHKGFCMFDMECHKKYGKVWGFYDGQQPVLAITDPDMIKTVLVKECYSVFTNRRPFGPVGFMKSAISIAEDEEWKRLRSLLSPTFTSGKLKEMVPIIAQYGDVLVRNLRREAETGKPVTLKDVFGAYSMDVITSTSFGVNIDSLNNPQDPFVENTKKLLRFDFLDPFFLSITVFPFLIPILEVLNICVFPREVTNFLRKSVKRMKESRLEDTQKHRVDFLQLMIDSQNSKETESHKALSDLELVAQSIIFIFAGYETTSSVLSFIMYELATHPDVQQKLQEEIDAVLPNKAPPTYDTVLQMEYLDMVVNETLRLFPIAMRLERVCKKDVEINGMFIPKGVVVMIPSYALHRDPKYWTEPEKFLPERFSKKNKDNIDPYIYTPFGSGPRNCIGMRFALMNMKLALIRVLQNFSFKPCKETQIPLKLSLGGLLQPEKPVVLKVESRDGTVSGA
# Cytochrome P450 2D6 = Cytochrome P450 2D6 (Homo sapiens, UniProt P10635); assay: Inhibition of CYP2D6 in human liver microsomes incubated for 10 mins in presence of NADPH by LC/MS/MS analysis; assay type: ADME, Microsome
# Cytochrome P450 2D6, sequence (P10635 whole entry): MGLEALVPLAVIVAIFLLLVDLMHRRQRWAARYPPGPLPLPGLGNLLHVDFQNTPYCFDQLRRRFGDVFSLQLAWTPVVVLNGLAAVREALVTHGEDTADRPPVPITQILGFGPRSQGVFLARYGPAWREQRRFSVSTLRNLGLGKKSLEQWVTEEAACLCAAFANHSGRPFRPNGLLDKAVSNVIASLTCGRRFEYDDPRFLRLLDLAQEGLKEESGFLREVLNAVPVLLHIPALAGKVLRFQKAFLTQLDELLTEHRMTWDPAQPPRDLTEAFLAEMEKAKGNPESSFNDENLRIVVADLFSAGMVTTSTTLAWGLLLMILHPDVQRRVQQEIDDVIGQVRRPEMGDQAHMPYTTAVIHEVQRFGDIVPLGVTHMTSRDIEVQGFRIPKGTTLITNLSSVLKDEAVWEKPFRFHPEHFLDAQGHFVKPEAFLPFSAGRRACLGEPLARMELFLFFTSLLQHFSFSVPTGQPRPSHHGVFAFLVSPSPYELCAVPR
# Cytochrome P450 2C9 = Cytochrome P450 2C9 (Homo sapiens, UniProt P11712); assay: Inhibition of CYP2C9 in human liver microsomes incubated for 10 mins in presence of NADPH by LC/MS/MS analysis; assay type: ADME, Microsome
# Cytochrome P450 2C9, sequence (P11712 whole entry): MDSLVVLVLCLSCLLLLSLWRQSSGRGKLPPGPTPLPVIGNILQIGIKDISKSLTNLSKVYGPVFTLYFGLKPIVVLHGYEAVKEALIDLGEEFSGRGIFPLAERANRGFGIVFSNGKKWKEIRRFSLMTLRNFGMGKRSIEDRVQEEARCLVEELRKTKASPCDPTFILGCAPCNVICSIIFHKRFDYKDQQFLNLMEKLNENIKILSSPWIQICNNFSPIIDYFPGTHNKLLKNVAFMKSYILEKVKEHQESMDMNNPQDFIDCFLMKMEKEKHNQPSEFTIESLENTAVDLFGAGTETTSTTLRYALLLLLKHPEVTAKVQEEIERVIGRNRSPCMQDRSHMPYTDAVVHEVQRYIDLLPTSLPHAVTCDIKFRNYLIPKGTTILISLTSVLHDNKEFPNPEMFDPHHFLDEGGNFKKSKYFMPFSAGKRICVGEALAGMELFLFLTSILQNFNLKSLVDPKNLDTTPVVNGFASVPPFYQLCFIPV
# PXR [31] = molecular target: T2, PXR; assay: Activation of human PXR expressed in human DPX2 co-expressing luciferase reporter gene assessed as fold increase incubated for 24 hrs by luciferase assay relative to control; assay type: cell-based; settings: DPX2 cells expressing human PXR and luciferase reporter gene, read-out: FC
Compound,IC50 (Hepatitis C virus [1]),IC90 (Hepatitis C virus [1]),IC50 (Hepatitis C virus [2]),"fraction unbound at 6 h, 1 µM [4]",fAUC [6],CL free [7],half-life [8],Vd [9],AUC(0-inf) [10],fAUC [11],Cmax [12],bioavailability [13],EC50 [16],Emax at 24 h (PXR [17]),CC50 [3],also measured
C[C@H](C(=O)N(C)C)N(c1cc(C#CC(C)(C)C)sc1C(=O)O)C(=O)[C@H]1CC[C@H](C)CC1,110 nM,610 nM,1320 nM,,,,,,,,,,,,> 20 µM,
CC(C)(C)C#Cc1cc(N(CC(=O)N2CCOCC2)C(=O)[C@H]2CC[C@H](C)CC2)c(C(=O)O)s1,23 nM,100 nM,340 nM,,,,,,,,,,,,> 20 µM,
CN1CCCC[C@@H](N(c2cc(C#CC(C)(C)C)sc2C(=O)O)C(=O)[C@H]2CC[C@H](C)CC2)C1=O,29 nM,63 nM,156 nM,0.002,2.26 ng·h/mL,7950 mL/min/kg,167 min,1.05 L/kg,3530 ng·h/mL,7.06 ng·h/mL,589 ng/mL,122%,> 30 µM,16%,> 20 µM,AUC(0-inf) [5]: 1130 ng·h/mL; clearance [14]: 15.9 mL/min/kg; half-life [15]: 259 min
CC(C)(C)C#Cc1cc(N(C(=O)[C@H]2CC[C@H](C)CC2)[C@H]2CC[C@H](O)CC2)c(C(=O)O)s1 [LOMIBUVIR],25 nM,97 nM,203 nM,,,,,,,,,,,,> 20 µM,

# Stronger by IC50 (Hepatitis C virus [1]), values ahead:
IC50 (Hepatitis C virus [1]),IC90 (Hepatitis C virus [1]),IC50 (Hepatitis C virus [2]),"fraction unbound at 6 h, 1 µM [4]",fAUC [6],CL free [7],half-life [8],Vd [9],AUC(0-inf) [10],fAUC [11],Cmax [12],bioavailability [13],EC50 [16],Emax at 24 h (PXR [17]),Compound,CC50 [3],also measured
5 nM,24 nM,49 nM,,,,,,,,,,,,C[C@@H](C(=O)N(C)C)N(c1cc(C#CC(C)(C)C)sc1C(=O)O)C(=O)[C@H]1CC[C@H](C)CC1,> 20 µM,
16 nM,96 nM,140 nM,0.002,3.48 ng·h/mL,11300 mL/min/kg,164 min,1.93 L/kg,3320 ng·h/mL,6.64 ng·h/mL,1310 ng/mL,64%,,,CN1CC[C@@H](N(c2cc(C#CC(C)(C)C)sc2C(=O)O)C(=O)[C@H]2CC[C@H](C)CC2)C1=O,> 20 µM,AUC ([5]; 72 h): 1.74 µg·h/mL
4 nM,13 nM,40 nM,0.019,4.35 ng·h/mL,3880 mL/min/kg,184 min,6.04 L/kg,176 ng·h/mL,3.34 ng·h/mL,119 ng/mL,26%,,,CN1CC[C@H](N(c2cc(C#CC(C)(C)C)sc2C(=O)O)C(=O)[C@H]2CC[C@H](C)CC2)C1=O,> 20 µM,AUC(0-inf) [5]: 229 ng·h/mL; clearance [14]: 73.7 mL/min/kg; half-life [15]: 280 min
3 nM,8 nM,24 nM,0.011,,,,,,,,,17.3 µM,63%,CN1CCC[C@H](N(c2cc(C#CC(C)(C)C)sc2C(=O)O)C(=O)[C@H]2CC[C@H](C)CC2)C1=O,> 20 µM,"AUC [18]: 8.77 µg·h/mL; fAUC [19]: 96.5 ng·h/mL; CL free [20]: 755 mL/min/kg; half-life [21]: 401 min; Vd [22]: 1.17 L/kg; AUC(0-inf) [23]: 6390 ng·h/mL; fAUC [24]: 70.3 ng·h/mL; Cmax [25]: 751 ng/mL; bioavailability [26]: 24%; half-life [27]: 288 min; fraction unbound at 6 h, 1 µM [28]: 0.01; Stability [29]: Stable; Stability [30]: Stable; IC50 (Cytochrome P450 3A4): > 30 µM; IC50 (Cytochrome P450 2D6): > 30 µM; IC50 (Cytochrome P450 2C9): > 30 µM; fold induction at 24 h (PXR [31]): 15.1"
10 nM,44 nM,105 nM,0.0004,,,,,,,,,20.4 µM,28%,CN1CCC[C@@H](N(c2cc(C#CC(C)(C)C)sc2C(=O)O)C(=O)[C@H]2CC[C@H](C)CC2)C1=O,> 20 µM,AUC [18]: 25.4 µg·h/mL; fAUC [19]: 10.2 ng·h/mL; CL free [20]: 2980 mL/min/kg; half-life [21]: 334 min; Vd [22]: 0.221 L/kg; AUC(0-inf) [23]: 24400 ng·h/mL; fAUC [24]: 9.76 ng·h/mL; Cmax [25]: 2540 ng/mL; bioavailability [26]: 32%; half-life [27]: 368 min; fold induction at 24 h (PXR [31]): 7.3

# From ChEMBL document CHEMBL5260802, “Discovery of Novel Allosteric HCV NS5B Inhibitors. 2. Lactam-Containing Thiophene Carboxylates” (ACS Med Chem Lett, 2017)
